Data from PMC8132112 (Cancer letters, 2018).

Molecular target: ABCB1 (Homo sapiens, UniProt P08183)
Sequence (P08183 whole entry): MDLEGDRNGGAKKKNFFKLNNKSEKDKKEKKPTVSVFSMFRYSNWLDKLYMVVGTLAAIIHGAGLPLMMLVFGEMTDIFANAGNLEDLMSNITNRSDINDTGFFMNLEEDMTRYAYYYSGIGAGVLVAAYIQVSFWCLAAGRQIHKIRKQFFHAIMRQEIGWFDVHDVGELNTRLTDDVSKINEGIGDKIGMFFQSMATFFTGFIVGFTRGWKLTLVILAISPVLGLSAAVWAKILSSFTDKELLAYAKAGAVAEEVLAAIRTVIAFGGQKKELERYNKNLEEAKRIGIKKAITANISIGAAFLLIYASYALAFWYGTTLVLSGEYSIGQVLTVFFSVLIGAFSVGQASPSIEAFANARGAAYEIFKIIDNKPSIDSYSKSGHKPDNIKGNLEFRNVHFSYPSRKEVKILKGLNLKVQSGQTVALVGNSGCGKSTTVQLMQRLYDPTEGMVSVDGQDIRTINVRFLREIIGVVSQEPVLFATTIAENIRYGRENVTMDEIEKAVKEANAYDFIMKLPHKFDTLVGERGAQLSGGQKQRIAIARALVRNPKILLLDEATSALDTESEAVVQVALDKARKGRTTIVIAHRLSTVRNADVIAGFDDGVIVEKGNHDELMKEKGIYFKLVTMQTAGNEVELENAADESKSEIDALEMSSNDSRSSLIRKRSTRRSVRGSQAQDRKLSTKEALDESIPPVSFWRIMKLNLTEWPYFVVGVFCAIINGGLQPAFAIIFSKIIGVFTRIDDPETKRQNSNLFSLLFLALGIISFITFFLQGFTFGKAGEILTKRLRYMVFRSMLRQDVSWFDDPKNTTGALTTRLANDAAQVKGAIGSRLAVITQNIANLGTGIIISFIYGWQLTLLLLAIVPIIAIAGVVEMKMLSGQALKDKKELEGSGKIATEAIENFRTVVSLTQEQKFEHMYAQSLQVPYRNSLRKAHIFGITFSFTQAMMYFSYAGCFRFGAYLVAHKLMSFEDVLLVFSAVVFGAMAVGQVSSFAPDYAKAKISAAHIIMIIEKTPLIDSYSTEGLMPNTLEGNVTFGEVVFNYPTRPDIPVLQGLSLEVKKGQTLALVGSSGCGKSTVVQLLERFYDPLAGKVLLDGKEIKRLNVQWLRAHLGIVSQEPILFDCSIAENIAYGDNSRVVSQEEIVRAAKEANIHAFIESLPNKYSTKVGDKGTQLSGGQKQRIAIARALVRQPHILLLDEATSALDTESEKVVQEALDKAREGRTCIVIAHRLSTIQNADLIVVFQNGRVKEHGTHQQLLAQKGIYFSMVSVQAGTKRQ

SMILES: CC(=O)O[C@H]1C(=O)[C@@]2(C)[C@H]([C@H](OC(=O)c3ccccc3)[C@]3(O)C[C@H](OC(=O)[C@H](O)[C@@H](NC(=O)c4ccccc4)c4ccccc4)C(C)=C1C3(C)C)[C@]1(OC(C)=O)CO[C@@H]1C[C@@H]2O [paclitaxel]
- radiolabelled substrate efflux from ABCB1-overexpressing cells: selonsertib significantly decreased the efflux of [^3H]-paclitaxel in ABCB1-overexpressing cell lines KB-C2 and SW620/Ad300
